# From patent publication US4401604A, “Process for preparing thiosulfenamide derivatives of N-phosphonomethylglycine triesters” (Monsanto Company, priority 1981, dated 1983)
# Experiments:
# Assay type in all cases: in vivo
# Morningglory [1] = assay: Pre-emergent herbicidal activity; details: Table III; 11.2 kg/h; 2 WAT
# Excerpt: (§1) A good grade of top soil is placed in aluminum pans and compacted to a depth of 0.95 to 1.27 cm. from the top of each pan. A predetermined number of seeds or vegetative propagules of each of several plant species are placed on top of the soil in each pan and then pressed down. Herbicidal compositions prepared as in the previous example are applied by admixture with or incorporation in the top layer of soil.
# (§2) In this method, the soil required to cover the seeds and propagules is weighed and admixed with a herbicidal composition containing a known amount of the active ingredient (compound of this invention). The pans are then filled with the admixture and leveled. Watering is carried out by permitting the soil in the pans to absorb moisture through apertures in the pan bottoms. The seed and propagule containing pans are placed on a wet sand bench and maintained for approximately two weeks under ordinary conditions of sunlight and watering. At the end of this period, the number of emerged plants of each species is noted and compared to an untreated control.
# (§3) The pre-emergent herbicidal activity index used below is based upon average percent control of each species as follows:
# (§4) Plant species in the table are identified by the same code letters used in the previous example.
# Yellow Nutsedge [2] = assay: Pre-emergent herbicidal activity; details: Table III; 11.2 kg/h; 2 WAT
# Excerpt: as §1, §2, §3, §4
# Smartweed [3] = assay: Pre-emergent herbicidal activity; details: Table III; 11.2 kg/h; 2 WAT
# Excerpt: as §1, §2, §3, §4
# Lambsquarters [4] = assay: Pre-emergent herbicidal activity; details: Table III; 11.2 kg/h; 2 WAT
# Excerpt: as §1, §2, §3, §4
# Cocklebur = assay: Pre-emergent herbicidal activity; details: Table III; 11.2 kg/h; 2 WAT
# Excerpt: as §1, §2, §3, §4
# Canada Thistle = assay: Pre-emergent herbicidal activity; details: Table III; 11.2 kg/h; 2 WAT
# Excerpt: as §1, §2, §3, §4
# Velvetleaf = assay: Pre-emergent herbicidal activity; details: Table III; 11.2 kg/h; 2 WAT
# Excerpt: as §1, §2, §3, §4
# Downy Brome = assay: Pre-emergent herbicidal activity; details: Table III; 11.2 kg/h; 2 WAT
# Excerpt: as §1, §2, §3, §4
# Quackgrass = assay: Pre-emergent herbicidal activity; details: Table III; 11.2 kg/h; 2 WAT
# Excerpt: as §1, §2, §3, §4
# Barnyardgrass = assay: Pre-emergent herbicidal activity; details: Table III; 11.2 kg/h; 2 WAT
# Excerpt: as §1, §2, §3, §4
# Johnsongrass = assay: Pre-emergent herbicidal activity; details: Table III; 11.2 kg/h; 2 WAT
# Excerpt: as §1, §2, §3, §4
# Morningglory [5] = assay: Post-emergence herbicidal activity, greenhouse; details: 4 WAT
# Excerpt: (§5) A good grade of top soil is placed in aluminum pans having holes in the bottom and compacted to a depth of 0.95 to 1.27 cm. from the top of the pan. A predetermined number of seeds of each of several dicotyledonous and monocotyledonous annual plant species and/or vegetative propagules for the perennial plant species are placed on the soil and pressed into the soil surface. The seeds and/or vegetative propagules are covered with soil and leveled. The pans are then placed on a sand bench in the greenhouse and watered from below as needed. After the plants reach the desired age (two to three weeks), each pan except for the control pans is removed individually to a spraying chamber and sprayed by means of an atomizer operating at a positive air pressure of approximately 1.46 kg/cm^2 absolute. The atomizer contains 6 ml. of a solution or suspension of the chemical. In that 6 ml., is an amount of a cyclohexanone emulsifying agent mixture to give a spray solution or suspension which contains about 0.4% by weight of the emulsifier. The spray solution or suspension contains a sufficient amount of the candidate chemical in order to give application rates corresponding to those set forth in the tables. The spray solution is prepared by taking an aliquot of a 1.0% by weight stock solution or suspension of the candidate chemical in an organic solvent such as acetone or tetrahydrofuran or in water. The emulsifying agent employed is a mixture comprising 35 weight percent butylamine dodecylbenzene sulfonate and 65 weight percent of a tall oil ethylene oxide condensate having about 11 moles of ethylene oxide per mole of tall oil. The pans are returned to the greenhouse and watered as before and the injury to the plants as compared to the control is observed at approximately two and four weeks as indicated in the tables under WAT and the results recorded. In some instances, the two-week observations are omitted.
# (§6) The post-emergence herbicidal activity index used in Table I is as follows:
# (§7) The plant species utilized in these tests are identified by letter in accordance with the following legend: […]
# Wild Buckwheat = assay: Post-emergence herbicidal activity, greenhouse; details: Table II, 4 WAT
# Excerpt: as §5, §6, §7
# Yellow Nutsedge [6] = assay: Post-emergence herbicidal activity, greenhouse; details: Table I, 4 WAT
# Excerpt: as §5, §6, §7
# Wheat = assay: Post-emergence herbicidal activity, greenhouse; details: Table II, 4 WAT
# Excerpt: as §5, §6, §7
# Panicum Spp = assay: Post-emergence herbicidal activity, greenhouse; details: Table II, 4 WAT
# Excerpt: as §5, §6, §7
# Smartweed [7] = assay: Post-emergence herbicidal activity, greenhouse; details: 4 WAT
# Excerpt: as §5, §6, §7
# Lambsquarters [8] = assay: Post-emergence herbicidal activity, greenhouse; details: 4 WAT
# Excerpt: as §5, §6, §7
# Crabgrass = assay: Post-emergence herbicidal activity, greenhouse; details: Table II, 4 WAT
# Excerpt: as §5, §6, §7
smiles,measurement,setting,value
"CCCCCCCCSSN(CC(=O)OC)CP(=O)(Oc1ccccc1)Oc1ccccc1 [II, Glycine, N-[(diphenoxyphosphinyl)methyl]-N-(octyldithio)-, methyl ester]",pre-emergent herbicidal activity index,Morningglory [1],0 (0-24% control)
same,pre-emergent herbicidal activity index,Yellow Nutsedge [2],0 (0-24% control)
same,pre-emergent herbicidal activity index,Smartweed [3],0 (0-24% control)
same,pre-emergent herbicidal activity index,Lambsquarters [4],0 (0-24% control)
same,pre-emergent herbicidal activity index,Cocklebur,0 (0-24% control)
same,pre-emergent herbicidal activity index,Canada Thistle,1 (25-49% control)
same,pre-emergent herbicidal activity index,Velvetleaf,0 (0-24% control)
same,pre-emergent herbicidal activity index,Downy Brome,0 (0-24% control)
same,pre-emergent herbicidal activity index,Quackgrass,0 (0-24% control)
same,pre-emergent herbicidal activity index,Barnyardgrass,0 (0-24% control)
same,pre-emergent herbicidal activity index,Johnsongrass,2 (50-74% control)
same,post-emergence herbicidal activity index,"Morningglory [5]; Table I, 5.6 kg/h",2 (50-74% control)
same,post-emergence herbicidal activity index,"Morningglory [5]; Table I, 11.2 kg/h",2 (50-74% control)
same,post-emergence herbicidal activity index,"Morningglory [5]; Table II, 0.28 kg/h",1 (25-49% control)
same,post-emergence herbicidal activity index,"Morningglory [5]; Table II, 1.12 kg/h",1 (25-49% control)
same,post-emergence herbicidal activity index,"Morningglory [5]; Table II, 5.6 kg/h",3 (75-99% control)
same,post-emergence herbicidal activity index,Wild Buckwheat; 0.28 kg/h,0 (0- 24% control)
same,post-emergence herbicidal activity index,Wild Buckwheat; 1.12 kg/h,0 (0- 24% control)
same,post-emergence herbicidal activity index,Wild Buckwheat; 5.6 kg/h,3 (75-99% control)
same,post-emergence herbicidal activity index,Yellow Nutsedge [6]; 5.6 kg/h,1 (25-49% control)
same,post-emergence herbicidal activity index,Yellow Nutsedge [6]; 11.2 kg/h,2 (50-74% control)
same,post-emergence herbicidal activity index,Wheat; 0.28 kg/h,0 (0- 24% control)
same,post-emergence herbicidal activity index,Wheat; 1.12 kg/h,0 (0- 24% control)
same,post-emergence herbicidal activity index,Wheat; 5.6 kg/h,3 (75-99% control)
same,post-emergence herbicidal activity index,Panicum Spp; 0.28 kg/h,0 (0- 24% control)
same,post-emergence herbicidal activity index,Panicum Spp; 1.12 kg/h,0 (0- 24% control)
same,post-emergence herbicidal activity index,Panicum Spp; 5.6 kg/h,3 (75-99% control)
same,post-emergence herbicidal activity index,"Smartweed [7]; Table I, 5.6 kg/h",2 (50-74% control)
same,post-emergence herbicidal activity index,"Smartweed [7]; Table I, 11.2 kg/h",4 (100% control)
same,post-emergence herbicidal activity index,"Smartweed [7]; Table II, 0.28 kg/h",0 (0- 24% control)
same,post-emergence herbicidal activity index,"Smartweed [7]; Table II, 1.12 kg/h",1 (25-49% control)
same,post-emergence herbicidal activity index,"Smartweed [7]; Table II, 5.6 kg/h",2 (50-74% control)
same,post-emergence herbicidal activity index,"Lambsquarters [8]; Table I, 5.6 kg/h",3 (75-99% control)
same,post-emergence herbicidal activity index,"Lambsquarters [8]; Table I, 11.2 kg/h",4 (100% control)
same,post-emergence herbicidal activity index,"Lambsquarters [8]; Table II, 0.28 kg/h",0 (0- 24% control)
same,post-emergence herbicidal activity index,"Lambsquarters [8]; Table II, 1.12 kg/h",2 (50-74% control)
same,post-emergence herbicidal activity index,"Lambsquarters [8]; Table II, 5.6 kg/h",3 (75-99% control)
same,post-emergence herbicidal activity index,Crabgrass; 0.28 kg/h,0 (0- 24% control)
same,post-emergence herbicidal activity index,Crabgrass; 1.12 kg/h,2 (50-74% control)
same,post-emergence herbicidal activity index,Crabgrass; 5.6 kg/h,4 (100% control)
